Drawing on US20230113037A1 (Bayer Aktiengesellschaft, priority 2019, published 2023), this text covers IC50 for 20 molecules.

SMILES strings stand for the structures. Like-named read-outs stand apart in the source and are kept apart here. Bounds are passed on as bounds.

Test [1] addresses T1, AHR (Homo sapiens, UniProt P35869).
T1 construct: U87 MG glioblastoma cells (ATCC #HTB-14) endogenously expressing AHR; endogenous in cells; host or cells: U87 MG glioblastoma cells (ATCC #HTB-14)
T1 sequence (P35869 11-848): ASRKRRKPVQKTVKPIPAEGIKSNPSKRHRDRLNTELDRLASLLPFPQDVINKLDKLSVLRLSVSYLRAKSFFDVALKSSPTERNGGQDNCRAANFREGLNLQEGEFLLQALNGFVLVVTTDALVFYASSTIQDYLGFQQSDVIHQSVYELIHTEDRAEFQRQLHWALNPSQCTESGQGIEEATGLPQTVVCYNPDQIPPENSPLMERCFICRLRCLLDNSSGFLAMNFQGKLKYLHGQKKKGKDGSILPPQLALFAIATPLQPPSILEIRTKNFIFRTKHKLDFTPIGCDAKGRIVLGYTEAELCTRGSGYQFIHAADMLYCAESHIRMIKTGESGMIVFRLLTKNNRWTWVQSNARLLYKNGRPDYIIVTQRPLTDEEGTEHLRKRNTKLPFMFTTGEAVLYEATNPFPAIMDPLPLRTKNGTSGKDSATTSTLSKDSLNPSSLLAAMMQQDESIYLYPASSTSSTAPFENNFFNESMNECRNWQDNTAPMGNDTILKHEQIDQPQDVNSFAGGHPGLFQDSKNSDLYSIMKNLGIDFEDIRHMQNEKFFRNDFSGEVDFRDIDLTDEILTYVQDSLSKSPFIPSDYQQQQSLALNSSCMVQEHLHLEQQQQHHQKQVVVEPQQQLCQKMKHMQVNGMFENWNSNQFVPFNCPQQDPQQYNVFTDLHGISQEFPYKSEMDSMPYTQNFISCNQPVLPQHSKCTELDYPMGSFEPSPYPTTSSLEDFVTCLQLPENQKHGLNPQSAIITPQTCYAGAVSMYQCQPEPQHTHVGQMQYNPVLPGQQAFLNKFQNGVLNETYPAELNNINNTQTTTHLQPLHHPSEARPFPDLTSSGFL
Put plainly: In vitro assay 1: antagonism in human cell line (AHR transactivation, firefly luciferase reporter, kynurenic acid prestimulated). The test is classed as cell-based. The settings on record: AHR Antagonism Human IC50 [M]. An outline of the steps:
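Antagonism is measured against kynurenic acid prestimulation in U87 MG glioblastoma cells carrying stable DRE-luciferase and Renilla reporters. Positive inhibition control: 150 μM kynurenic acid with 5 μM staurosporine. Values are normalized to controls; repeats are averaged or given as medians.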
Background: Reporter assays use an easily measured gene product as a stand-in for the process of interest.

The target in test [2] is T2, AHR (Mus musculus, UniProt P30561).
T2 sequence (P30561 1-848 P471L/N533S/M589L): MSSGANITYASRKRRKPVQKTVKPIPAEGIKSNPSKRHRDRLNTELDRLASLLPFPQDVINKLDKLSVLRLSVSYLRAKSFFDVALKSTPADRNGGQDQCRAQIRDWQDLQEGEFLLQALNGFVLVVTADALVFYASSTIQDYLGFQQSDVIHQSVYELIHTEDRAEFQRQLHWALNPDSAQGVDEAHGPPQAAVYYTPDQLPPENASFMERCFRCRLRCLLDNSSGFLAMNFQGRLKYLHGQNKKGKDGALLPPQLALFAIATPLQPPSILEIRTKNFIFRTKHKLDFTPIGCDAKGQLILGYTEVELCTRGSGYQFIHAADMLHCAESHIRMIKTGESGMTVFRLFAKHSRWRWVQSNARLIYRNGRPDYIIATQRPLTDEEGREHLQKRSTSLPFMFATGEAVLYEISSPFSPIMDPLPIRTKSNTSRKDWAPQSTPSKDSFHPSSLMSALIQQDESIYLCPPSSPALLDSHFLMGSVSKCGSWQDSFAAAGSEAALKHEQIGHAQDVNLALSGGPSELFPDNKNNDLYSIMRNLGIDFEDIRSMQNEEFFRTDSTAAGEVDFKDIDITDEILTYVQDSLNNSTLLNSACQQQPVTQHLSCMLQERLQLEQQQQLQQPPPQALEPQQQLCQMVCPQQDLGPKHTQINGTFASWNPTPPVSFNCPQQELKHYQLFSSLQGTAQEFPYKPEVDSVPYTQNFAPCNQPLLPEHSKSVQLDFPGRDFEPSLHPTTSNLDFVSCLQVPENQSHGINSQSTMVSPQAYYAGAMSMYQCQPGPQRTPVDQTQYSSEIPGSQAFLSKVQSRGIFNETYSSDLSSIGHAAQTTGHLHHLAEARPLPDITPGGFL
Description: In vitro assay 3: antagonism in mouse cell line (AHR transactivation, firefly luciferase reporter, kynurenic acid prestimulated). Type of test: cell-based. The following applies: 200 μM kynurenic acid, 20 hours, read-out: AHR Antagonism Mouse IC50. A digest of the protocol: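 Kynurenic acid-prestimulated mouse reporter cells; stable AHR-inducible firefly luc construct with DRE sites in promoter. No-agonist wells = positive inhibition ctrl. Luminescence normalized to pos/neg ctrls; n>1 reported as mean or median.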

[3] abbreviates: Hepa 1c1c7 cells, firefly luciferase reporter.

As for `CC[C@@H](Nc1nc2c(Br)cccc2c2nc(-c3ccc(Cl)cc3OC(F)(F)F)nn12)C(N)=O` [Example 573, (2R)-2-({7-bromo-2-[4-chloro-2-(trifluoromethoxy)phenyl][1,2,4]triazolo[1,5-c]quinazolin-5-yl}amino)butanamide], the figures for the IC50 at AHR [1] and at AHR [2] (mouse Hepa 1c1c7 cells) were 3.36e-09 M and 1.39 nM, respectively.

In the case of `C[C@@H](Nc1nc2c(Br)cccc2c2nc(-c3cnn(C)c3)nn12)C(=O)N1CCN(C)CC1` [Example 786, (2R)-2-{[7-bromo-2-(1-methyl-1H-pyrazol-4-yl)[1,2,4]triazolo[1,5-c]quinazolin-5-yl]amino}-1-(4-methylpiperazin-1-yl)propan-1-one], the results for the IC50 against AHR [1] (firefly luciferase reporter) and at AHR [2] (setting [3]) were 2.2e-08 M and 22.1 nM, respectively.

Consider `COc1ccc(-c2nc3c4cccc(Br)c4nc(N[C@H](C)C(=O)N4CCO[C@@H](C)C4)n3n2)cc1` [Example 909, (2R)-2-{[7-bromo-2-(4-methoxyphenyl)[1,2,4]triazolo[1,5-c]quinazolin-5-yl]amino}-1-[(2S)-2-methylmorpholin-4-yl]propan-1-one], for which the IC50 on AHR [1] (firefly luciferase reporter) was 2.36e-09 M; at AHR [2] (setting [3]), 1.68 nM.

`COc1cscc1-c1nc2c3ccccc3nc(N[C@@H]3CCCCNC3=O)n2n1` [Example 333, (3R)-3-{[2-(4-Methoxythiophen-3-yl)[1,2,4]triazolo[1,5-c]quinazolin-5-yl]amino}azepan-2-one]: the IC50 at AHR [1] came to 2.74e-08 M; on AHR [2] (mouse Hepa 1c1c7 cells) it was 28 nM.

Regarding `O=C1NCCCC[C@H]1Nc1nc2ccccc2c2nc(-c3cc(Br)ccc3OC(F)(F)F)nn12` [Example 505, (3R)-3-({2-[5-bromo-2-(trifluoromethoxy)phenyl][1,2,4]triazolo[1,5-c]quinazolin-5-yl}amino)azepan-2-one], the half-maximal inhibitory concentration (IC50) against AHR [1] is more than 2e-05 M; at AHR [2] (mouse Hepa 1c1c7 cells), 50.7 nM.

Take `CCNC(=O)[C@H](CC)Nc1nc2c(Br)cccc2c2nc(-c3ccc(Cl)cc3OC(F)F)nn12` [Example 799, (2S)-2-({7-bromo-2-[4-chloro-2-(difluoromethoxy)phenyl][1,2,4]triazolo[1,5-c]quinazolin-5-yl}amino)-N-ethylbutanamide]: the half-inhibitory concentration (IC50) turned out to be 4.21e-08 M on AHR [1] (firefly luciferase reporter) and 18.5 nM at AHR [2] (setting [3]).

Regarding `COc1cccc2c1nc(N[C@@H]1CCCCNC1=O)n1nc(-c3cnn(C4CCC4)c3)nc21` [Example 758, (3R)-3-{[2-(1-cyclobutyl-1H-pyrazol-4-yl)-7-methoxy[1,2,4]triazolo[1,5-c]quinazolin-5-yl]amino}azepan-2-one], the IC50 at AHR [1] was 1.35e-08 M; on AHR [2] (mouse Hepa 1c1c7 cells) it was 19.6 nM.

For the molecule `CC[C@H](Nc1nc2c(Br)cccc2c2nc(-c3ccc(C#N)cc3)nn12)C(N)=O` [Example 564, (2S)-2-{[7-bromo-2-(4-cyanophenyl)[1,2,4]triazolo[1,5-c]quinazolin-5-yl]amino}butanamide], the IC50 against AHR [1] amounted to 1.23e-08 M; on AHR [2] (mouse Hepa 1c1c7 cells), 17.5 nM.

`CC[C@H](Nc1nc2c(Br)cccc2c2nc(-c3ccc(Cl)cc3OC(F)(F)F)nn12)C(N)=O` [Example 574, (2S)-2-({7-bromo-2-[4-chloro-2-(trifluoromethoxy)phenyl][1,2,4]triazolo[1,5-c]quinazolin-5-yl}amino)butanamide]: the IC50 came to 5e-09 M on AHR [1] and 1.07 nM on AHR [2] (mouse Hepa 1c1c7 cells).

Regarding `CC[C@@H](Nc1nc2ccccc2c2nc(-c3cccnc3C(F)(F)F)nn12)C(N)=O` [Example 489, (2R)-2-({2-[2-(trifluoromethyl)pyridin-3-yl][1,2,4]triazolo[1,5-c]quinazolin-5-yl}amino)butanamide], the IC50 against AHR [1] was determined as 4.24e-07 M; at AHR [2] (mouse Hepa 1c1c7 cells) it was 43.3 nM.

With `CCOC(=O)[C@@H](C)Nc1nc2c(Br)cccc2c2nc(-c3cnn(C)c3)nn12` [Example 866, ethyl N-[7-bromo-2-(1-methyl-1H-pyrazol-4-yl)[1,2,4]triazolo[1,5-c]quinazolin-5-yl]-D-alaninate], the concentration for half-maximal inhibition (IC50) is 5.75e-08 M against AHR [1] (firefly luciferase reporter) and 144 nM on AHR [2] (setting [3]).

For `CCC[C@@H](Nc1nc2ccccc2c2nc(-c3ccccc3OC(F)(F)F)nn12)C(=O)NC` [Example 464, N-methyl-N^2-{2-[2-(trifluoromethoxy)phenyl][1,2,4]triazolo[1,5-c]quinazolin-5-yl}-D-norvalinamide], the IC50 against AHR [1] is 5.89e-08 M; on AHR [2] (mouse Hepa 1c1c7 cells), 3.91 nM.

For the molecule `O=C1NCC[C@H]1Nc1nc2ccccc2c2nc(-c3ccsc3)nn12` [Example 342, (3R)-3-{[2-(thiophen-3-yl)[1,2,4]triazolo[1,5-c]quinazolin-5-yl]amino}pyrrolidin-2-one], the IC50 at AHR [1] was determined as 2.21e-07 M; on AHR [2] (mouse Hepa 1c1c7 cells), 175 nM.

With `COc1cccc(-c2nc3c4c(F)cccc4nc(N[C@H](C)C(N)=O)n3n2)c1` [Example 184, N^2-[10-fluoro-2-(3-methoxyphenyl)[1,2,4]triazolo[1,5-c]quinazolin-5-yl]-D-alaninamide], the IC50 against AHR [1] is 9.66e-09 M; at AHR [2] (mouse Hepa 1c1c7 cells), 62.8 nM.

For `CS(=N)(=O)c1cccc(-c2nc3c4ccccc4nc(N[C@@H]4CCCCNC4=O)n3n2)c1` (single isomer, unassigned) [Example 660], the half-maximal inhibitory concentration (IC50) on AHR [1] turned out to be 8.48e-07 M; on AHR [2] (mouse Hepa 1c1c7 cells), 927 nM.

As to `COc1ccc(-c2nc3c4cc(OC)ccc4nc(N[C@@H]4CNCCNC4=O)n3n2)cc1` [Example 279, (6R)-6-{[9-methoxy-2-(4-methoxyphenyl)[1,2,4]triazolo[1,5-c]quinazolin-5-yl]amino}-1,4-diazepan-5-one], the IC50 on AHR [1] is 3.08e-07 M; on AHR [2] (mouse Hepa 1c1c7 cells) it was 180 nM.

Turning to `O=C1NCCCC[C@H]1Nc1nc2c(Cl)cccc2c2nc(-c3ccncc3)nn12` [Example 193, (3R)-3-{[7-Chloro-2-(pyridin-4-yl)[1,2,4]triazolo[1,5-c]quinazolin-5-yl]amino}azepan-2-one], the IC50 against AHR [1] came to 2.05e-08 M; at AHR [2] (mouse Hepa 1c1c7 cells) it was 87.2 nM.

Take `O=C1NCC[C@H]1Nc1nc2ccccc2c2nc(-c3cc(C(F)(F)F)ccn3)nn12` [Example 366, (3R)-3-({2-[4-(trifluoromethyl)pyridin-2-yl][1,2,4]triazolo[1,5-c]quinazolin-5-yl}amino)pyrrolidin-2-one]: the IC50 on AHR [1] is more than 2e-05 M; at AHR [2] (mouse Hepa 1c1c7 cells), 593 nM.

As to `N#Cc1cccc(-c2nc3c4ccccc4nc(N[C@@H]4CCNC4=O)n3n2)c1` [Example 383, 3-(5-{[(3R)-2-oxopyrrolidin-3-yl]amino}[1,2,4]triazolo[1,5-c]quinazolin-2-yl)benzonitrile], the results for the IC50 at AHR [1] and on AHR [2] (mouse Hepa 1c1c7 cells) were 1.39e-07 M and 388 nM, respectively.

`O=C1NCCC[C@H]1Nc1nc2ccccc2c2nc(-c3cc(Cl)ccc3OC(F)(F)F)nn12` [Example 499, (3R)-3-({2-[5-chloro-2-(trifluoromethoxy)phenyl][1,2,4]triazolo[1,5-c]quinazolin-5-yl}amino)piperidin-2-one]: the IC50 against AHR [1] was more than 2e-05 M; at AHR [2] (mouse Hepa 1c1c7 cells), more than 20000 nM.

As a reminder, the IC50 is the concentration that inhibits the measured activity by half.
